Key:
Format in all cases: in vivo
[1] = system: Kochia (Kochia scoparia); experiment: Test A preemergence; conditions: for Plant response rating, Kochia: 125 g ai/ha; for Kochia plant response rating (0 to 100 scale, 0 is no effect, 100 is complete control): 500 g ai/ha, visual injury approx. 10 d
Procedure, shortened: (§1)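 Seeds sprayed preemergence with a directed soil spray, or plants at 2 to 10 cm height and one- to two-leaf stage sprayed postemergence, with test chemicals in a non-phytotoxic solvent mixture containing surfactant, in loam soil–sand blend. Injury rated visually against untreated controls after about 10 d in greenhouse, 0 (no effect) to 100 (complete control).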

[2] = system: barnyardgrass (Echinochloa crus-galli); experiment: Test A preemergence; conditions: for Plant response rating, Barnyardgrass: 125 g ai/ha; for Barnyardgrass plant response rating (0 to 100 scale, 0 is no effect, 100 is complete control): 500 g ai/ha, visual injury approx. 10 d
Procedure, shortened: as §1

[3] = system: giant foxtail (Setaria faberii); experiment: Test A preemergence; conditions: for Plant response rating, Foxtail, Giant: 125 g ai/ha; for Foxtail, Giant plant response rating (0 to 100 scale, 0 is no effect, 100 is complete control): 500 g ai/ha, visual injury approx. 10 d
Procedure, shortened: as §1

[4] = system: pigweed (Amaranthus retroflexus); experiment: Test A preemergence; conditions: for Plant response rating, Pigweed: 125 g ai/ha; for Pigweed plant response rating (0 to 100 scale, 0 is no effect, 100 is complete control): 500 g ai/ha, visual injury approx. 10 d
[5] = system: ragweed (common ragweed, Ambrosia elatior); experiment: Test A preemergence; conditions: for Plant response rating, Ragweed: 125 g ai/ha
Procedure, shortened: as §1

[6] = system: ryegrass, Italian (Italian ryegrass, Lolium multiflorum); experiment: Test A preemergence; conditions: for Plant response rating, Ryegrass, Italian: 125 g ai/ha; for Ryegrass, Italian plant response rating (0 to 100 scale, 0 is no effect, 100 is complete control): 500 g ai/ha, visual injury approx. 10 d
Procedure, shortened: as §1

[7] = system: Galium (catchweed bedstraw, Galium aparine); experiment: Test A postemergence
Procedure, shortened: as §1

[8] = system: Kochia (Kochia scoparia); experiment: Test A postemergence
Procedure, shortened: as §1

[9] = system: barnyardgrass (Echinochloa crus-galli); experiment: Test A postemergence
Procedure, shortened: as §1

[10] = system: blackgrass (Alopecurus myosuroides); experiment: Test A postemergence
Procedure, shortened: as §1

[11] = system: corn (Zea mays); experiment: Test A postemergence
Procedure, shortened: as §1

[12] = system: giant foxtail (Setaria faberii); experiment: Test A postemergence
Procedure, shortened: as §1

[13] = system: pigweed (Amaranthus retroflexus); experiment: Test A postemergence
Procedure, shortened: as §1

[14] = system: ragweed (common ragweed, Ambrosia elatior); experiment: Test A postemergence
Procedure, shortened: as §1

[15] = system: ryegrass, Italian (Italian ryegrass, Lolium multiflorum); experiment: Test A postemergence
Procedure, shortened: as §1

[16] = system: wheat (Triticum aestivum); experiment: Test A postemergence
Procedure, shortened: as §1

[17] = system: barnyardgrass (Echinochloa crus-galli); experiment: Test B flooded paddy test; conditions: Flood, 250 g ai/ha; 0 to 100 scale where 0 is no effect and 100 is complete control; 13 to 15 d
Procedure, shortened: (§2)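 2-leaf plants; pots flooded 3 cm over soil; cpd added to paddy water; depth held; greenhouse 13–15 d; visual rating vs controls, 0 = no effect, 100 = complete control.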

[18] = system: ducksalad (Heteranthera limosa); experiment: Test B flooded paddy test; conditions: Flood, 250 g ai/ha; 0 to 100 scale where 0 is no effect and 100 is complete control; 13 to 15 d
Procedure, shortened: as §2

[19] = system: rice (Oryra sativa); experiment: Test B flooded paddy test; conditions: Flood, 250 g ai/ha; 0 to 100 scale where 0 is no effect and 100 is complete control; 13 to 15 d
Procedure, shortened: as §2

[20] = system: sedge, umbrella (small-flower umbrella sedge, Cyperus difformis); experiment: Test B flooded paddy test; conditions: Flood, 250 g ai/ha; 0 to 100 scale where 0 is no effect and 100 is complete control; 13 to 15 d
Procedure, shortened: as §2

[21] = system: barnyardgrass (Echinochloa crus-galli); experiment: Test C flooded paddy test; conditions: Flood, 0 is no effect, 100 is complete control
From the text: (§3) Plant species in the flooded paddy test consisted of rice (Oryza sativa), sedge, umbrella (small-flower umbrella sedge, Cyperus difformis), ducksalad (Heteranthera limosa), and barnyardgrass (Echinochloa crus-galli) grown to the 2-leaf stage for testing. At time of treatment, test pots were flooded to 3 cm above the soil surface, treated by application of test compounds directly to the paddy water, and then maintained at that water depth for the duration of the test. Treated plants and controls were maintained in a greenhouse for 13 to 15 d, after which time all species were compared to controls and visually evaluated. Plant response ratings, summarized in Table C, are based on a scale of 0 to 100 where 0 is no effect and 100 is complete control. A dash (-) response means no test result.

[22] = system: ducksalad (Heteranthera limosa); experiment: Test C flooded paddy test; conditions: Flood, 0 is no effect, 100 is complete control
From the text: as §3

[23] = system: rice (Oryza sativa); experiment: Test C flooded paddy test; conditions: Flood, 0 is no effect, 100 is complete control
From the text: as §3

[24] = system: sedge, umbrella (small-flower umbrella sedge, Cyperus difformis); experiment: Test C flooded paddy test; conditions: Flood, 0 is no effect, 100 is complete control
From the text: as §3

[25] = preemergence, 0 to 100 scale (0 no effect, 100 complete control)
[26] = 125 g ai/ha, postemergence, visual injury rating on 0 to 100 scale (0 no effect, 100 complete control), approx. 10 d
[27] = 500 g ai/ha, postemergence, 0 to 100 scale, 0 no effect, 100 complete control
[28] = Preemergence, visual injury after approximately 10 d, 0 to 100 scale where 0 is no effect and 100 is complete control
[29] = 125 g ai/ha, postemergence, visual rating after approx. 10 d, 0 to 100 scale (0 no effect, 100 complete control)
[30] = Postemergence, 500 g ai/ha, 0 to 100 scale where 0 is no effect and 100 is complete control

SMILES: O=C1NCC(c2ccc(F)cc2F)C1C(=O)Nc1cccc(F)c1F (stereo not shown) [Compound 455]
- Plant response rating, Kochia [1, 25]: 20
- Kochia plant response rating (0 to 100 scale, 0 is no effect, 100 is complete control) ([1]; Preemergence): 50
- Plant response rating, Barnyardgrass [2, 25]: 70
- Barnyardgrass plant response rating (0 to 100 scale, 0 is no effect, 100 is complete control) ([2]; Preemergence): 90
- Plant response rating, Foxtail, Giant [3, 25]: 80
- Foxtail, Giant plant response rating (0 to 100 scale, 0 is no effect, 100 is complete control) ([3]; Preemergence): 90
- Plant response rating, Pigweed [4, 25]: 0
- Pigweed plant response rating (0 to 100 scale, 0 is no effect, 100 is complete control) ([4]; Preemergence): 50
- Plant response rating, Ragweed [5, 25]: 0
- Ragweed plant response rating (0 to 100 scale, 0 is no effect, 100 is complete control) ([5]; Preemergence, 500 g ai/ha, visual injury approx. 10 d): 0
- Plant response rating, Ryegrass, Italian [6, 25]: 0
- Ryegrass, Italian plant response rating (0 to 100 scale, 0 is no effect, 100 is complete control) ([6]; Preemergence): 0
- Galium plant response rating [7, 26]: 30
- Plant response rating, Galium [7, 27]: 70
- Kochia plant response rating [8, 26]: 60
- Plant response rating, Kochia [8, 27]: 70
- Barnyardgrass plant response rating [9, 26]: 70
- Plant response rating, Barnyardgrass [9, 27]: 80
- Blackgrass plant response rating [10, 26]: 0
- Plant response rating, Blackgrass [10, 27]: 0
- Corn plant response rating [11, 26]: 0
- Plant response rating, Corn [11, 27]: 0
- Foxtail, Giant plant response rating [12, 26]: 70
- Plant response rating, Foxtail, Giant [12, 27]: 80
- Pigweed plant response rating [13, 26]: 50
- Plant response rating, Pigweed [13, 27]: 60
- Ragweed plant response rating [14, 26]: 0
- Plant response rating, Ragweed [14, 27]: 0
- Ryegrass, Italian plant response rating [15, 26]: 0
- Plant response rating, Ryegrass, Italian [15, 27]: 0
- Wheat plant response rating [16, 26]: 0
- Plant response rating, Wheat [16, 27]: 30
- Plant response rating, Barnyardgrass [17]: 75
- Plant response rating, Ducksalad [18]: 100
- Plant response rating, Rice [19]: 0
- Plant response rating, Sedge, Umbrella [20]: 0
- Plant response rating (scale of 0 to 100), Barnyardgrass ([21]; 31 g ai/ha): 0
- Plant response rating (scale of 0 to 100), Barnyardgrass ([21]; 62 g ai/ha): 0
- Plant response rating (scale of 0 to 100), Barnyardgrass ([21]; 125 g ai/ha): 0
- Plant response rating (scale of 0 to 100), Barnyardgrass ([21]; 250 g ai/ha): 50
- Plant response rating (scale of 0 to 100), Ducksalad ([22]; 31 g ai/ha): 0
- Plant response rating (scale of 0 to 100), Ducksalad ([22]; 62 g ai/ha): 40
- Plant response rating (scale of 0 to 100), Ducksalad ([22]; 125 g ai/ha): 80
- Plant response rating (scale of 0 to 100), Ducksalad ([22]; 250 g ai/ha): 100
- Plant response rating (scale of 0 to 100), Rice ([23]; 31 g ai/ha): 0
- Plant response rating (scale of 0 to 100), Rice ([23]; 62 g ai/ha): 0
- Plant response rating (scale of 0 to 100), Rice ([23]; 125 g ai/ha): 0
- Plant response rating (scale of 0 to 100), Rice ([23]; 250 g ai/ha): 0
- Plant response rating (scale of 0 to 100), Sedge, Umbrella ([24]; 31 g ai/ha): 0
- Plant response rating (scale of 0 to 100), Sedge, Umbrella ([24]; 62 g ai/ha): 0
- Plant response rating (scale of 0 to 100), Sedge, Umbrella ([24]; 125 g ai/ha): 0
- Plant response rating (scale of 0 to 100), Sedge, Umbrella ([24]; 250 g ai/ha): 0

SMILES: CN1CC(c2ccc(F)c(C(F)(F)F)c2)C(C(=O)Nc2ccccc2F)C1=O (stereo not shown) [Compound 611]
- Plant response rating, Kochia [1, 28]: 40
- Kochia plant response rating (0 to 100 scale, 0 is no effect, 100 is complete control) ([1]; Preemergence): 60
- Plant response rating, Barnyardgrass [2, 28]: 90
- Barnyardgrass plant response rating (0 to 100 scale, 0 is no effect, 100 is complete control) ([2]; Preemergence): 90
- Plant response rating, Foxtail, Giant [3, 28]: 90
- Foxtail, Giant plant response rating (0 to 100 scale, 0 is no effect, 100 is complete control) ([3]; Preemergence): 90
- Plant response rating, Pigweed [4, 28]: 70
- Pigweed plant response rating (0 to 100 scale, 0 is no effect, 100 is complete control) ([4]; Preemergence): 80
- Plant response rating, Ragweed [5, 28]: 0
- Plant response rating, Ryegrass, Italian [6, 28]: 60
- Ryegrass, Italian plant response rating (0 to 100 scale, 0 is no effect, 100 is complete control) ([6]; Preemergence): 60
- Plant response rating, Galium [7, 29]: 50
- Plant response rating, Galium [7, 30]: 60
- Plant response rating, Kochia [8, 29]: 60
- Plant response rating, Kochia [8, 30]: 70
- Plant response rating, Barnyardgrass [9, 29]: 90
- Plant response rating, Barnyardgrass [9, 30]: 90
- Plant response rating, Blackgrass [10, 29]: 50
- Plant response rating, Blackgrass [10, 30]: 70
- Plant response rating, Corn [11, 29]: 50
- Plant response rating, Corn [11, 30]: 70
- Plant response rating, Foxtail, Giant [12, 29]: 90
- Plant response rating, Foxtail, Giant [12, 30]: 90
- Plant response rating, Pigweed [13, 29]: 20
- Plant response rating, Pigweed [13, 30]: 30
- Plant response rating, Ragweed [14, 29]: 0
- Plant response rating, Ragweed [14, 30]: 30
- Plant response rating, Ryegrass, Italian [15, 29]: 40
- Plant response rating, Ryegrass, Italian [15, 30]: 70
- Plant response rating, Wheat [16, 29]: 40
- Plant response rating, Wheat [16, 30]: 60
- Plant response rating, Barnyardgrass [17]: 85
- Plant response rating, Ducksalad [18]: 100
- Plant response rating, Rice [19]: 40
- Plant response rating, Sedge, Umbrella [20]: 0
- Plant response rating (scale of 0 to 100), Barnyardgrass ([21]; 31 g ai/ha): 0
- Plant response rating (scale of 0 to 100), Barnyardgrass ([21]; 62 g ai/ha): 0
- Plant response rating (scale of 0 to 100), Barnyardgrass ([21]; 125 g ai/ha): 60
- Plant response rating (scale of 0 to 100), Barnyardgrass ([21]; 250 g ai/ha): 75
- Plant response rating (scale of 0 to 100), Ducksalad ([22]; 31 g ai/ha): 0
- Plant response rating (scale of 0 to 100), Ducksalad ([22]; 62 g ai/ha): 0
- Plant response rating (scale of 0 to 100), Ducksalad ([22]; 125 g ai/ha): 80
- Plant response rating (scale of 0 to 100), Ducksalad ([22]; 250 g ai/ha): 95
- Plant response rating (scale of 0 to 100), Rice ([23]; 31 g ai/ha): 0
- Plant response rating (scale of 0 to 100), Rice ([23]; 62 g ai/ha): 0
- Plant response rating (scale of 0 to 100), Rice ([23]; 125 g ai/ha): 0
- Plant response rating (scale of 0 to 100), Rice ([23]; 250 g ai/ha): 15
- Plant response rating (scale of 0 to 100), Sedge, Umbrella ([24]; 31 g ai/ha): 0
- Plant response rating (scale of 0 to 100), Sedge, Umbrella ([24]; 62 g ai/ha): 0
- Plant response rating (scale of 0 to 100), Sedge, Umbrella ([24]; 125 g ai/ha): 0
- Plant response rating (scale of 0 to 100), Sedge, Umbrella ([24]; 250 g ai/ha): 0

Reference: patent publication US12077503B2, “Substituted cyclic amides and their use as herbicides” (FMC CORPORATION, priority 2015, dated 2024)
